Reference: PubChem BioAssay (NCI)
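Dose response: 5 concentrations. Exposure: 48 h. Format: 96-well plates. Endpoint: linear interpolation; highest concentration if not reached. The concentration for 50% growth inhibition is given as GI50. The concentration for full growth arrest is given as TGI.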

Columns and labels:
Assay in all cases: DTP human tumour cell line panel, 48 h
[1] = test system: HT29 colon
[2] = test system: NCI/ADR-RES ovarian
[3] = test system: RXF 393 renal
[4] = test system: SK-MEL-28 melanoma
[5] = test system: LOX IMVI melanoma
[6] = test system: SW-620 colon
[7] = test system: ACHN renal
[8] = test system: CAKI-1 renal
[9] = test system: MDA-MB-435
[10] = test system: SK-MEL-2 melanoma
[11] = test system: M14 melanoma
[12] = test system: SF-268 CNS
[13] = test system: SK-MEL-5 melanoma
[14] = test system: TK-10 renal
[15] = test system: U251 CNS
[16] = test system: A498 renal
[17] = test system: CCRF-CEM leukemia
[18] = test system: DU-145 prostate
[19] = test system: HOP-62 NSCLC
[20] = test system: BT-549 breast
[21] = test system: MOLT-4 leukemia
[22] = test system: RPMI-8226 leukemia
[23] = test system: NCI-H226 lung
[24] = test system: SR leukemia
[25] = test system: EKVX NSCLC
[26] = test system: SF-539 CNS
[27] = test system: KM12 colon
[28] = test system: HCT-15 colon
[29] = test system: IGROV1 ovarian

CN1CCN(Cc2ccc(NC(=O)c3cncc(C#Cc4cnc5ccc(OC6CCOCC6)nn45)c3)cc2C(F)(F)F)CC1
GI50 [1]: 73.2 nM
TGI [1]: 317 nM
GI50 [2]: 348 nM
TGI [2]: 1770 nM
GI50 [3]: 96.5 nM
TGI [3]: 288 nM
GI50 [4]: 256 nM
TGI [4]: 1050 nM
GI50 [5]: 71.9 nM
TGI [5]: 420 nM
GI50 [6]: 61.3 nM
TGI [6]: 332 nM
GI50 [7]: 105 nM
TGI [7]: 1750 nM
GI50 [8]: 43.7 nM
TGI [8]: 252 nM
GI50 [9]: 61.7 nM
TGI [9]: 603 nM
GI50 [10]: 90.6 nM
TGI [10]: 199 nM
GI50 [11]: 49.3 nM
TGI [11]: 154 nM
GI50 [12]: 142 nM
TGI [12]: 687 nM
GI50 [13]: 596 nM
TGI [13]: 1350 nM
GI50 [14]: 90.7 nM
TGI [14]: 227 nM
GI50 [15]: 142 nM
TGI [15]: 527 nM
GI50 [16]: 246 nM
TGI [16]: 797 nM
GI50 [17]: 11.3 nM
TGI [17]: 3130 nM
GI50 [18]: 141 nM
TGI [18]: 769 nM
GI50 [19]: 165 nM
TGI [19]: 953 nM
GI50 [20]: 537 nM
TGI [20]: 1510 nM
GI50 [21]: 36.4 nM
TGI [21]: 638 nM
GI50 [22]: 183 nM
TGI [22]: 973 nM
GI50 [23]: 24.1 nM
TGI [23]: 762 nM
GI50 [24]: 37.8 nM
TGI [24]: 332 nM
GI50 [25]: 173 nM
TGI [25]: 805 nM
GI50 [26]: 39.3 nM
TGI [26]: 526 nM
GI50 [27]: 5 nM
TGI [27]: 305 nM
GI50 [28]: 95.3 nM
TGI [28]: 324 nM
GI50 [29]: 56.2 nM
TGI [29]: 503 nM
